Measured values: ChEMBL document CHEMBL1146897, “A chloroquine-like molecule designed to reverse resistance in Plasmodium falciparum” (J Med Chem, 2006)
pIC50: −log10 of the molar value.

Assays:
Plasmodium falciparum [1] = assay: Antimalarial activity against chloroquine-sensitive Plasmodium falciparum D6; format: functional, organism-based
Plasmodium chabaudi = assay: Antimalarial activity in Plasmodium chabaudi infected CF1 mice (Mus musculus) at 64 mg/kg over 4 days
Plasmodium falciparum [2] = assay: Antimalarial activity against chloroquine-resistant Plasmodium falciparum Dd2; format: functional, organism-based

CN(CCCNc1ccnc2cc(Cl)ccc12)CCCN1c2ccccc2CCc2ccccc21
pIC50 (Plasmodium falciparum [1]): 8.54 | Activity (Plasmodium chabaudi): >99% | pIC50 (Plasmodium falciparum [2]): 8.28
